The values below come from PubChem BioAssay AID1996.

By kinetic solubility is commonly meant solubility judged after dilution from a stock solution rather than from solid.

Converted amounts (≈) assume the structure as drawn.

The conditions of this data set: buffer; pH 7.4; 200.0 µM.
On to `COC(=O)c1cc(C)nc(Sc2ccccc2NC(C)=O)n1`, for which the kinetic solubility turned out to be 41.6 µg/mL (≈ 131 µM). For `CN(C)CCCNC(=O)N1c2ccccc2Sc2ccccc21` the value was above 49.1 µg/mL; for `COc1ccc(Cl)cc1NC(=S)N1CCCCCC1`, 42.7 µg/mL (≈ 143 µM); for `NS(=O)(=O)c1cccc(NC(=O)COC(=O)CCC(=O)c2cccs2)c1`, above 59.5 µg/mL.

In turn, `CC(=O)Nc1nc2cccc([N+](=O)[O-])c2s1` came in with a solubility (kinetic) of 2.8 µg/mL (≈ 11.8 µM).

On to `CCNc1nc(OC)nc(SCC(=O)Nc2ccccc2)n1`, for which the kinetic solubility was above 47.9 µg/mL.

In turn, `O=C(Nc1nccs1)c1ccc([N+](=O)[O-])cc1Cl` returned a kinetic solubility of 3.8 µg/mL (≈ 13.4 µM). In the case of `O=C1COc2ccc(S(=O)(=O)N3CCCCC3)cc2N1`, the kinetic solubility worked out at 43.3 µg/mL (≈ 146 µM). For the compound `Cc1ccc(C(=O)NC(C)c2ccc(-n3ccnc3)cc2)cc1` (centres undefined), the solubility (kinetic) was above 45.8 µg/mL.

Take `COc1cccc(NC(=O)C2(S(=O)(=O)c3ccc(Cl)cc3)CC2)c1`: the kinetic solubility was found to be 33.1 µg/mL (≈ 90.5 µM). `COc1ccccc1NC(=O)c1ccc2c(c1)CCN2S(C)(=O)=O` had a kinetic solubility above 52 µg/mL. The figure for `Cc1ccc(NC(=O)c2cc(C)nc3ccccc23)c(C)c1` is 27.1 µg/mL (≈ 93.3 µM); for `Cc1nn(CC(=O)NCc2ccco2)c(C)c1[N+](=O)[O-]` it is above 41.7 µg/mL. The compound `CN(C)S(=O)(=O)c1cccc(NC(=O)CC23CC4CC(CC(C4)C2)C3)c1` returned a kinetic solubility of 10.8 µg/mL (≈ 28.7 µM). Compound `CC(=O)/C(C#N)=C1\NC(=O)C(Cc2ccccc2C)S1` (centres undefined) had a kinetic solubility above 43 µg/mL. Take `O=C(CSc1ccc(Cl)cc1)NCc1ccco1`: the kinetic solubility amounted to 16.3 µg/mL (≈ 57.8 µM). Take `CN(c1ccccc1)S(=O)(=O)c1ccc2ccccc2c1`: the kinetic solubility was 2.4 µg/mL (≈ 8.07 µM). In the case of `N#CCCN1CCN(S(=O)(=O)c2ccc3c(c2)CCC3)CC1`, the kinetic solubility was above 47.9 µg/mL.

`NC(=O)COc1ccc2cc(-c3ccc(F)cc3)c(=O)oc2c1` registered a kinetic solubility below 0.7 µg/mL. In turn, `CCOc1ncccc1C(=O)N1CCN(C(=O)c2ccccc2)CC1` gave a solubility (kinetic) above 50.9 µg/mL. The figure for `O=C(CNCc1ccccc1)Nc1ccc(Cl)cc1` is 38.6 µg/mL (≈ 140 µM). `O=C(Nc1ccc(F)c(Cl)c1)c1nsc(Cl)c1Cl` had a kinetic solubility of 0.7 µg/mL (≈ 2.15 µM). For the compound `Cc1sc2ncnc(N)c2c1C`, the kinetic solubility is above 26.9 µg/mL.

As for `N/C(=N\OC(=O)c1cccc(Br)c1)c1ccccn1`, the solubility (kinetic) was 3 µg/mL (≈ 9.37 µM). Consider `N#CC1(NC(=O)COc2cccnc2[N+](=O)[O-])CCCCC1`, for which the solubility (kinetic) is above 45.6 µg/mL. For `Cc1cc(=O)oc2cc(NC(=O)c3ccccc3Cl)ccc12` the value was 8 µg/mL (≈ 25.5 µM); for `CC1CC(C)CN(C(=O)COC(=O)c2cc3ccccc3oc2=O)C1` (centres undefined), above 51.5 µg/mL. The figure for `O=C(COc1ccc(-n2ccnc2)cc1)Nc1cccc(Cl)c1` is 23.7 µg/mL (≈ 72.3 µM). For `CC(C)Cc1ccc(C(C)C(=N)N)cc1.Cl` (centres undefined) the value was above 36.1 µg/mL.

For `CN(C)C(=O)CSc1nnc(Cc2ccc3c(c2)OCO3)o1`, the solubility (kinetic) is above 48.2 µg/mL. For `CC(NC(=O)NC(=O)c1ccc(Cl)cc1Cl)C1CC1` (centres undefined) the value was 7.2 µg/mL (≈ 23.9 µM); for `FC(F)(F)c1ccnc(Oc2ccc(C3=NCCS3)cc2)c1`, 2.2 µg/mL (≈ 6.78 µM). The compound `CC1CC(C)CN(C(=O)COC(=O)/C=C/c2ccco2)C1` (centres undefined) registered a kinetic solubility above 43.7 µg/mL.

In turn, `Cc1cccc(NC(=O)NCc2cccnc2)c1C` registered a kinetic solubility of 35.6 µg/mL (≈ 139 µM). In turn, `CC12CCC(C(=O)NCc3ccc(F)cc3)(OC1=O)C2(C)C` (centres undefined) gave a kinetic solubility of 44.2 µg/mL (≈ 145 µM). Compound `OC(CN1CCN(c2cccc(Cl)c2)CC1)c1ccccc1` (centres undefined) yielded a solubility (kinetic) of 16.1 µg/mL (≈ 50.8 µM).

The compound `CCOc1ncccc1C(=O)OCc1cccc([N+](=O)[O-])c1` yielded a solubility (kinetic) of 0.5 µg/mL (≈ 1.65 µM).

`Nc1cccc(P(=O)(c2ccccc2)c2ccccc2)c1` yielded a solubility (kinetic) above 44 µg/mL. The compound `COc1cc(NC(=O)COC(=O)CCc2nc3ccccc3c(=O)[nH]2)cc(OC)c1` gave a solubility (kinetic) of 60.7 µg/mL (≈ 148 µM). In turn, `CCc1cccc(NC(=S)N(CCOC)C(C)c2ccco2)c1` (centres undefined) came in with a kinetic solubility of 7.9 µg/mL (≈ 23.8 µM). `CCCn1c(SCC(=O)NC2CCCC2)nnc1-c1cccnc1` showed a solubility (kinetic) above 51.8 µg/mL. In the case of `Cc1cc(C(=O)Nc2ccc3c(c2)OCCO3)ccc1[N+](=O)[O-]`, the solubility (kinetic) was below 0.3 µg/mL. On to `CC1CCN(S(=O)(=O)c2cccc3cccnc23)CC1`, for which the kinetic solubility came out at 41.8 µg/mL (≈ 144 µM). Compound `CN1CCN(c2ccc(CNC(=O)c3ccc4c(c3)OCCO4)cc2)CC1` returned a solubility (kinetic) of 49.7 µg/mL (≈ 135 µM).

`Cc1ccccc1C(=O)NC1CCCN(Cc2ccccc2F)C1` (centres undefined) returned a solubility (kinetic) of 43.2 µg/mL (≈ 132 µM).

For the compound `Cc1ccc2c(c1)N(Cc1cccc(C#N)c1)C=NS2(=O)=O`, the kinetic solubility came to 8.1 µg/mL (≈ 26 µM). For the compound `COc1ccc(NC(=O)Cc2cccc3ccccc23)cc1`, the kinetic solubility came to 2.9 µg/mL (≈ 9.95 µM).

On to `O=C(COC(=O)CC1CC2CCC1C2)Nc1ccc(F)cc1Cl` (centres undefined), for which the kinetic solubility was 13.2 µg/mL (≈ 38.8 µM).

`CN(CC(=O)Nc1ccc(F)c(F)c1F)C(=O)C1COc2ccccc2O1` (centres undefined) had a solubility (kinetic) above 57 µg/mL. For the compound `CCOc1ccccc1C1NC(=O)CCC1[N+](=O)[O-]` (centres undefined), the solubility (kinetic) is above 39.6 µg/mL. The compound `CCc1sc(-c2ccccc2)nc1C(=O)OC` came in with a solubility (kinetic) below 0.5 µg/mL. The compound `NC(=O)CSc1nc2ccc([N+](=O)[O-])cc2[nH]1` displayed a kinetic solubility above 37.8 µg/mL. For `CCc1ccccc1NC(=O)COC(=O)C1C2CC3OC(=O)C1C3C2` (centres undefined) the value was 46.2 µg/mL (≈ 135 µM); for `CCN(CC)C(=O)c1ccc(NC(=O)c2cccc(C(F)(F)F)c2)cc1`, 2.8 µg/mL (≈ 7.68 µM); for `CCN(C(=O)C(C)Cl)c1ccccc1` (centres undefined), 20.6 µg/mL (≈ 97.3 µM). With `CC(C)NC(=O)COc1nncc2ccccc12`, the solubility (kinetic) was above 36.8 µg/mL.

In turn, `C#Cc1ccc(CN2CCN(Cc3ccsc3)C(CCO)C2)cc1` (centres undefined) gave a solubility (kinetic) of 36.3 µg/mL (≈ 107 µM). In turn, `O=C(NCC(=O)N1CCCCC1)c1ccc2ccccc2c1` returned a solubility (kinetic) above 44.5 µg/mL. Regarding `Cl.NCC12CC3CC(C1)CC(c1ccc(Cl)cc1)(C3)C2`, the solubility (kinetic) was above 46.8 µg/mL. `Cc1ccc(-c2cc[n+](Cc3ccccc3)cc2)cc1.[Cl-]` gave a kinetic solubility above 44.4 µg/mL. The compound `CN(C)CCN(C(=O)c1ccc2ccccc2c1)c1nc2c(F)cc(F)cc2s1.Cl` returned a solubility (kinetic) of 32.8 µg/mL. With `Cc1ccc(C)c(NC(=O)c2ccc3nccnc3c2)c1`, the kinetic solubility came to 6.4 µg/mL (≈ 23.1 µM). Compound `CCc1ccccc1NC(=O)CCC(=O)c1cccs1` displayed a kinetic solubility of 32.1 µg/mL (≈ 112 µM). `c1ccc(-c2noc(CN3CCc4sccc4C3)n2)cc1` came in with a kinetic solubility of 13.4 µg/mL (≈ 45.1 µM). In turn, `NC(=O)C1CCN(C(=O)CCC(=O)c2ccc(F)cc2)CC1` came in with a kinetic solubility above 46 µg/mL.

`CC(=O)N/C(=N/c1nc(C)cc(C)n1)Nc1cc(C)cc(C)c1` registered a kinetic solubility of 3.8 µg/mL (≈ 12.2 µM).

In the case of `COc1ccc(-c2csc(COC(=O)C(C)(C)C)n2)cc1`, the solubility (kinetic) was below 0.7 µg/mL. Take `CSc1nc2ccc(NC(=O)c3cccs3)cc2s1`: the kinetic solubility is 2.7 µg/mL (≈ 8.81 µM). The figure for `O=C(NCCCCc1ccccc1)Nc1ccc(F)cc1F` is 0.3 µg/mL (≈ 0.986 µM). In turn, `Cc1ccc(C(=O)Nc2ccccc2)cc1S(=O)(=O)N1CCN(C)CC1` showed a kinetic solubility of 31.8 µg/mL (≈ 85.1 µM). The compound `CCc1ccccc1NC(=O)C1CC(c2ccc(OC)cc2)=NO1` (centres undefined) yielded a kinetic solubility of 45.3 µg/mL (≈ 140 µM). The figure for `CCCCCC(=O)Nc1c2c(nc3ccccc13)CCC2` is 18.7 µg/mL (≈ 66.2 µM); for `O=C(COC(=O)c1ccc(Cl)nc1)NCCc1ccc(Cl)cc1` it is 21.4 µg/mL (≈ 60.6 µM). The figure for `Cc1cccc(C)c1NC(=O)c1ccc(N2CCCC2=O)cc1` is above 46.3 µg/mL.
